Measured values from BigSolDB 2.1.

CN(C)CCC=C1c2ccccc2CCc2ccccc21.Cl
solubility (mole fraction)
Details	278.15 K	283.15 K	288.15 K	293.15 K	298.15 K	303.15 K	308.15 K	313.15 K	318.15 K	323.15 K
in 2-butoxyethanol	0.0451	0.0494	0.0531	0.0595	0.066	0.0722	0.0793	0.0864	0.0942	0.102
in 2-ethoxyethanol	0.084	0.0895	0.0954	0.101	0.108	0.115	0.123	0.132	0.141	0.151
in 2-methoxyethanol	0.127	0.132	0.138	0.143	0.149	0.155	0.162	0.169	0.177	0.185
in 2-propoxyethanol	0.06	0.0641	0.0686	0.075	0.0814	0.0881	0.0955	0.103	0.111	0.119
in DMF	0.0295	0.0323	0.0354	0.0388	0.0423	0.0466	0.0509	0.0557	0.0611	0.0674
in NMP	0.0311	0.0342	0.0372	0.0412	0.0448	0.0492	0.0543	0.0594	0.0652	0.0716
in ethanol	0.0337	0.0423	0.0528	0.0653	0.0794	0.0938	0.108	0.122	0.136	0.148
in methanol	0.144	0.152	0.16	0.168	0.175	0.183	0.189	0.196	0.202	0.207
in n-butanol	0.0148	0.0187	0.0242	0.0316	0.0405	0.0508	0.0628	0.0765	0.091	0.105
in n-heptanol	0.0101	0.0124	0.0151	0.0184	0.0225	0.0274	0.0333	0.0402	0.0484	0.0581
in n-hexanol	0.0116	0.0145	0.0176	0.0217	0.027	0.0332	0.0407	0.0492	0.0595	0.0712
in n-octanol	0.00215	0.00267	0.00322	0.00388	0.00471	0.00568	0.00688	0.00824	0.00991	0.012
in n-pentanol	0.0127	0.0162	0.02	0.025	0.0321	0.04	0.0497	0.0613	0.0743	0.0887
in n-propanol	0.0218	0.028	0.0357	0.0453	0.0572	0.0708	0.0855	0.101	0.117	0.131
